These results are taken from patent publication US6562818B1, “Irreversible inhibitors of tyrosine kinases” (Warner-Lambert Company, priority 1997, dated 2003).

Structures can show the parent of a compound that is named as a salt.

Data set [1] concerns the target T1, EGFR (Homo sapiens, UniProt P00533). As to conditions: read-out: EGFR (autophosphorlyation) IC50; A431 cells, 15 minutes compound, stimulated with 100 ng/mL EGF. Here is the method:
(§1) Extracts were made by lysing the monolayers in 0.2 mL of boiling Laemlli buffer (2% sodium dodecyl sulfate, 5% beta-mercaptoethanol, 10% glycerol and 50 mM tris[hydroxymethyl]aminomethane (Tris), pH 6.8), and the lysates were heated to 100° C. for 5 minutes. Proteins in the lysate were separated by polyacrylamide gel electrophoresis and electrophoretically transferred to nitrocellulose. The membrane was washed once in 10 mM Tris, pH 7.2, 150 mM NaCl, 0.01% Azide (TNA), and blocked overnight in TNA containing 5% bovine serum albumin and 1% ovalbumin. The membrane was blotted for 2 hours with antiphosphotyrosine antibody (UBI, 1 μg/mL in blocking buffer) and then washed twice in TNA, once in TNA containing 0.05% Tween-20 detergent and 0.05% nonidet P-40 detergent and twice in TNA. […] Band intensities were determined with a Molecular Dynamics laser densitometer.
Duplicate sets of cells were treated with a range of concentrations of the designated compound to be tested as an inhibitor for 15 minutes. The cells were then stimulated with 100 ng/mL of EGF for 5 minutes and extracts made as described under the Western Blotting Procedure.

Data set [2] addresses T1, EGFR. Particulars: A431 cells, 2 μM compound. Here is the method:
as §1

Data set [3] addresses Human EGF receptor tyrosine kinase (Homo sapiens, UniProt P00533). Particulars: read-out: EGFR (isolated enzyme) IC50; isolated enzyme from A431 cells, 10 μM ATP.
Method: Human EGF receptor tyrosine kinase was isolated from A431 human epidermoid carcinoma cells by the following method. Cells were grown in roller bottles in dMEM/F12 media (Gibco/BRL) containing 10% fetal calf serum. Approximately 10^9 cells were lysed in 2 volumes of buffer containing 20 mM N-[2-hydroxyethyl]piperazine-N′-[2-ethane sulfonic acid](Hepes), pH 7.4, 5 mM ethylene glycol-bis(β-aminoethyl ether) N,N,N′,N′-tetraacetic acid (EGTA), 1% Triton X-100, 10% glycerol, 0.1 mM sodium orthovanadate, 5 mM sodium fluoride, 4 mM pyrophosphate, 4 mM benzamide, 1 mM dithiothreitol (DTT), 80 μg/mL aprotinin, 40 μg/mL leupeptin, and 1 mM phenylmethyl sulfonyl fluoride (PMSF). After centrifugation at 25,000×g for 10 minutes, the supernatant was applied to a fast Q sepharose column (Pharmacia Biotech., Inc., Piscataway, N.J.) and eluted with a linear gradient from 0.1 M NaCl to 0.4 M NaCl in 50 mM Hepes, 10% glycerol, pH 7.4. Enzyme active fractions were pooled, divided into aliquots, and stored at −100° C.
Enzyme assays for IC50 determinations were performed in 96-well filter plates (Millipore MADVN6550, Millipore, Bedford, Mass). […] The wells are then washed 5 times with 0.2 mL of 10% TCA and ^32P incorporation determined with a Wallac beta plate counter (Wallac, Inc., Gaithersburg, Pa.).
Another data set has as its target ErbB-2 (Homo sapiens, UniProt P04626). Description: ErbB-2 autophosphorylation assay. The format is cell-based. Particulars: read-out: ErbB-2 (autophosphorlyation) IC50.

T1 sequence (P00533 25-1210 limits assumed): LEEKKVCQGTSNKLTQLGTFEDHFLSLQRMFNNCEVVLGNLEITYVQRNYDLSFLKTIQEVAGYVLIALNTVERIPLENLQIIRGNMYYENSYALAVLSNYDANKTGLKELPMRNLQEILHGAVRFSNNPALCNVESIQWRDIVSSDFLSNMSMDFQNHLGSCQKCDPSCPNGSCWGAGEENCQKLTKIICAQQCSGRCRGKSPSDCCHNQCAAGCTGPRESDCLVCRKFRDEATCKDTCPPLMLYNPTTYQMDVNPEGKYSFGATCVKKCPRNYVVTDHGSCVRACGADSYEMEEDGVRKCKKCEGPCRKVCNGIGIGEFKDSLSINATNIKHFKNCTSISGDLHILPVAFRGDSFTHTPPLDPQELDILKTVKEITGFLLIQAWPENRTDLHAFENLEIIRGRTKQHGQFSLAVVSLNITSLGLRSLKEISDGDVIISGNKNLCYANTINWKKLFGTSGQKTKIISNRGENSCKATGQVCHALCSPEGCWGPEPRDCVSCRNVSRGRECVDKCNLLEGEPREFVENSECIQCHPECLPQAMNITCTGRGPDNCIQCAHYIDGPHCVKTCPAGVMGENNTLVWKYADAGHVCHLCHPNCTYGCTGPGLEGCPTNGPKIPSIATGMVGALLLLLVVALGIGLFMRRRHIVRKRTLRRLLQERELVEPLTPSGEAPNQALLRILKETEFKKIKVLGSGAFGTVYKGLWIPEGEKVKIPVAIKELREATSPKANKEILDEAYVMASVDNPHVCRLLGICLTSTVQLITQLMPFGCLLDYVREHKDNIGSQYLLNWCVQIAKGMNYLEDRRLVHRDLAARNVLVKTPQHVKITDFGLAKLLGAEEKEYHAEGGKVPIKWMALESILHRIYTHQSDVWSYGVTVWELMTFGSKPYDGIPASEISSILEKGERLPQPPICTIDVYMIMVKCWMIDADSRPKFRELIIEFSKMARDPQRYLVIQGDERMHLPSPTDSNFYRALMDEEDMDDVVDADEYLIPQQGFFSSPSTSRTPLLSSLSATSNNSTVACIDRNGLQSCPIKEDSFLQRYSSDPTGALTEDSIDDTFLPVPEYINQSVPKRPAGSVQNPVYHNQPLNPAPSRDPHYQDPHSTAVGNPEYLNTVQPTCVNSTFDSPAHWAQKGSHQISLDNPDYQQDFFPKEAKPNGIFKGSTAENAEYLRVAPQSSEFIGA
Chain of Human EGF receptor tyrosine kinase (P00533 25-1210 limits assumed): as above
Chain of ErbB-2 (P04626 23-1255, species assumed): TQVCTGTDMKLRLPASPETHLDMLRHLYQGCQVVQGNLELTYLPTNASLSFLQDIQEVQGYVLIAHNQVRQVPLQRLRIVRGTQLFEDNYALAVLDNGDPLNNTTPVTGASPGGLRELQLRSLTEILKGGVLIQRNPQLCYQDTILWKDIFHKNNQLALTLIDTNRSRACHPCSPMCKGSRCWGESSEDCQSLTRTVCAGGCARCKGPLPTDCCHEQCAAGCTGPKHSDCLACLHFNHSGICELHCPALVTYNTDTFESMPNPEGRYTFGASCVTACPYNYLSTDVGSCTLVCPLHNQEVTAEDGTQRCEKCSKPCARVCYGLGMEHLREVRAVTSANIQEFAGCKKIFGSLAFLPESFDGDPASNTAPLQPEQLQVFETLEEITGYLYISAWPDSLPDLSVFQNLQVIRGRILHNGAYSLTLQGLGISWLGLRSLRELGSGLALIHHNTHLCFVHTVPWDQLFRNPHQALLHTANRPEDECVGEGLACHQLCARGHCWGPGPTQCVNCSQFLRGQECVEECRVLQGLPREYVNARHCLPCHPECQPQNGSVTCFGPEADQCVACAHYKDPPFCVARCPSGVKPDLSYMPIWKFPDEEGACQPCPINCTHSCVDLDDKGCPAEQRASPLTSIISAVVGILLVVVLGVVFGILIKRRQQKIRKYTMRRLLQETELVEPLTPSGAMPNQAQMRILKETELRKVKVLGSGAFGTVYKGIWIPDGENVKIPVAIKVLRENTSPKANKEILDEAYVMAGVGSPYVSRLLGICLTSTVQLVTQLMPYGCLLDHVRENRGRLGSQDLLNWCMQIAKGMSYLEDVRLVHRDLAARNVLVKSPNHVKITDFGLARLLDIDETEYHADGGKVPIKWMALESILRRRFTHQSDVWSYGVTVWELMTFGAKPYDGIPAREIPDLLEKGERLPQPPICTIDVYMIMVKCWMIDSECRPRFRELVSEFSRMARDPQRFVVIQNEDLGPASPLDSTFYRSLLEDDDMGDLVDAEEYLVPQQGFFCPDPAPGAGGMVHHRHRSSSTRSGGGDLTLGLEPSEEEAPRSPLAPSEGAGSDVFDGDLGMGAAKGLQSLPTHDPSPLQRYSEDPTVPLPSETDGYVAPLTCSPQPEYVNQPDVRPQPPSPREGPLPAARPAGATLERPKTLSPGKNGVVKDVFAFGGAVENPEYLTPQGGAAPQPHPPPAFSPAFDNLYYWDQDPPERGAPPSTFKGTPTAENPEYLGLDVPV

`C=CC(=O)Nc1ccc2ncnc(Nc3ccc(Oc4ccccc4)cc3)c2c1` (as salt: salt) [Example 1, N-(4-[4-Phenoxyanilino]quinazolin-6-yl)acrylamide] had a melting point of 185 to 191 °C.

In turn, `C=CC(=O)Nc1ccc2ncnc(Nc3ccc(OCc4ccccc4)cc3)c2c1` (as salt: salt) [Example 2, N-(4-[4-Benzyloxyanilino]quinazolin-6-yl)acrylamide] yielded a melting point of 227 to 229 °C.

As for `C=CC(=O)Nc1ccc2ncnc(Nc3ccc(Oc4ccccc4)cc3)c2c1` [Example 1, N-(4-[4-Phenoxyanilino]quinazolin-6-yl)acrylamide], the half-inhibitory concentration (IC50) was 4.8 nM at EGFR [1] and 5.8 nM in data set [3]. On EGFR [2], the “% EGFR enzyme activity after 8 hours washoff” value stood at 0%.

Take `C=CC(=O)Nc1ccc2ncnc(Nc3ccc(OCc4ccccc4)cc3)c2c1` [Example 2, N-(4-[4-Benzyloxyanilino]quinazolin-6-yl)acrylamide]: the concentration for half-maximal inhibition (IC50) on EGFR [1] was 4.2 nM; on ErbB-2 it was 7.6 nM; in data set [3], 3.6 nM. On EGFR [2], the “% EGFR enzyme activity after 8 hours washoff” value is recorded as 0%.

The melting point is the temperature, or range, at which the solid turns liquid. The IC50 is the concentration that inhibits the measured activity by half.
